Reference: ChEMBL document CHEMBL5303573, “Mapping human microbiome drug metabolism by gut bacteria and their genes” (Nature, 2019)

Assays:
[1] = The drug is tested on Bacteroides xylanisolvens strain: DSM18836 for biotransformation. The drug concentrations were measured before and after a 12-h incubation by liquid-chromatography-coupled mass spectrometry (LC–MS); settings: 2 µM
[2] = The drug is tested on Alistipes indistinctus strain: DSM22520 for biotransformation. The drug concentrations were measured before and after a 12-h incubation by liquid-chromatography-coupled mass spectrometry (LC–MS); settings: 2 µM
[3] = The drug is tested on Bacteroides cellulosilyticus strain: DSM14838 for biotransformation. The drug concentrations were measured before and after a 12-h incubation by liquid-chromatography-coupled mass spectrometry (LC–MS); settings: 2 µM
[4] = The drug is tested on Bacteroides vulgatus strain: ATCC8482 for biotransformation. The drug concentrations were measured before and after a 12-h incubation by liquid-chromatography-coupled mass spectrometry (LC–MS); settings: phocaeicola vulgatus, 2 µM
[5] = The drug is tested on Bacteroides uniformis strain: ATCC8492 for biotransformation. The drug concentrations were measured before and after a 12-h incubation by liquid-chromatography-coupled mass spectrometry (LC–MS); settings: 2 µM
[6] = bacteroides intestinalis, 12 h, 2 µM
Description: The drug is tested on Bacteroides intestinalis strain: DSM17393 for biotransformation. The drug concentrations were measured before and after a 12-h incubation by liquid-chromatography-coupled mass spectrometry (LC–MS)

[7] = The drug is tested on Ruminococcus gnavus strain: ATCC29149 for biotransformation. The drug concentrations were measured before and after a 12-h incubation by liquid-chromatography-coupled mass spectrometry (LC–MS); settings: mediterraneibacter gnavus, 2 µM
[8] = The drug is tested on Providencia rettgeri strain: DSM1131 for biotransformation. The drug concentrations were measured before and after a 12-h incubation by liquid-chromatography-coupled mass spectrometry (LC–MS); type: ADME; set-up: dose 2 uM, timepoint 0 vs 12 hours; settings: 2 µM
[9] = bifidobacterium adolescentis, 12 h, 2 µM
Description: The drug is tested on Bifidobacterium adolescentis strain: ATCC 15703 for biotransformation. The drug concentrations were measured before and after a 12-h incubation by liquid-chromatography-coupled mass spectrometry (LC–MS)

[10] = The drug is tested on Clostridium asparagiforme strain: DSM15981 for biotransformation. The drug concentrations were measured before and after a 12-h incubation by liquid-chromatography-coupled mass spectrometry (LC–MS); type: ADME; set-up: dose 2 uM, timepoint 0 vs 12 hours; settings: enterocloster asparagiformis, 2 µM
[11] = The drug is tested on Dorea formicigenerans strain: ATCC27755 for biotransformation. The drug concentrations were measured before and after a 12-h incubation by liquid-chromatography-coupled mass spectrometry (LC–MS); settings: 2 µM
[12] = The drug is tested on Bifidobacterium breve strain: DSM20213 for biotransformation. The drug concentrations were measured before and after a 12-h incubation by liquid-chromatography-coupled mass spectrometry (LC–MS); settings: 2 µM
[13] = The drug is tested on Bacteroides ovatus strain: ATCC8483 for biotransformation. The drug concentrations were measured before and after a 12-h incubation by liquid-chromatography-coupled mass spectrometry (LC–MS); settings: 2 µM
[14] = The drug is tested on Eubacterium hallii strain: DSM3353 for biotransformation. The drug concentrations were measured before and after a 12-h incubation by liquid-chromatography-coupled mass spectrometry (LC–MS); settings: anaerobutyricum hallii, 2 µM
[15] = The drug is tested on Bacteroides fragilis strain: HMW615 for biotransformation. The drug concentrations were measured before and after a 12-h incubation by liquid-chromatography-coupled mass spectrometry (LC–MS); settings: 2 µM
[16] = The drug is tested on Ruminococcus lactaris strain: ATCC29176 for biotransformation. The drug concentrations were measured before and after a 12-h incubation by liquid-chromatography-coupled mass spectrometry (LC–MS); settings: 2 µM
[17] = anaerostipes sp., 12 h, 2 µM
Description: The drug is tested on Anaerostipes sp. strain: fecal isolate for biotransformation. The drug concentrations were measured before and after a 12-h incubation by liquid-chromatography-coupled mass spectrometry (LC–MS)

[18] = The drug is tested on Bacteroides coprophilus strain: DSM18228 for biotransformation. The drug concentrations were measured before and after a 12-h incubation by liquid-chromatography-coupled mass spectrometry (LC–MS); settings: 2 µM
[19] = bacteroides thetaiotaomicron, 12 h, 2 µM
Description: The drug is tested on Bacteroides thetaiotaomicron strain: VPI-5482 for biotransformation. The drug concentrations were measured before and after a 12-h incubation by liquid-chromatography-coupled mass spectrometry (LC–MS)

Compound | Bacterial Biotransformation [1] | Bacterial Biotransformation [2] | Bacterial Biotransformation [3] | Bacterial Biotransformation [4] | Bacterial Biotransformation [5] | Bacterial Biotransformation [6] | Bacterial Biotransformation [7] | Bacterial Biotransformation [8] | Bacterial Biotransformation [9] | Bacterial Biotransformation [10] | Bacterial Biotransformation [11] | Bacterial Biotransformation [12] | Bacterial Biotransformation [13] | Bacterial Biotransformation [14] | Bacterial Biotransformation [15] | Bacterial Biotransformation [16] | Bacterial Biotransformation [17] | Bacterial Biotransformation [18] | Bacterial Biotransformation [19]
CC(=O)O[C@]1(C(C)=O)CC[C@H]2[C@@H]3C=C(Cl)C4=CC(=O)[C@@H]5C[C@@H]5[C@]4(C)[C@H]3CC[C@@]21C [CYPROTERONE ACETATE] | Compound metabolized | Compound NOT metabolized | Compound metabolized | Compound metabolized | Compound metabolized | Compound metabolized | Compound NOT metabolized | Compound NOT metabolized | Compound NOT metabolized | Compound NOT metabolized | Compound NOT metabolized | Compound NOT metabolized | Compound metabolized | Compound NOT metabolized | Compound metabolized | Compound NOT metabolized | Compound NOT metabolized | Compound metabolized | 
CCOC(=O)[C@H](CCc1ccccc1)N[C@@H](C)C(=O)N1[C@H](C(=O)O)C[C@H]2CCCC[C@@H]21 [TRANDOLAPRIL] | Compound metabolized | Compound NOT metabolized | Compound metabolized | Compound metabolized | Compound metabolized | Compound NOT metabolized | Compound NOT metabolized | Compound metabolized | Compound NOT metabolized | Compound NOT metabolized | Compound NOT metabolized | Compound metabolized |  | Compound NOT metabolized | Compound metabolized | Compound NOT metabolized | Compound NOT metabolized |  | 
CCCC1O[C@@H]2C[C@H]3[C@@H]4CCC5=CC(=O)C=C[C@]5(C)[C@H]4[C@@H](O)C[C@]3(C)[C@]2(C(=O)CO)O1 (some centres undefined) [BUDESONIDE] |  | Compound NOT metabolized | Compound NOT metabolized | Compound metabolized |  | Compound NOT metabolized | Compound NOT metabolized |  | Compound NOT metabolized | Compound metabolized | Compound NOT metabolized | Compound NOT metabolized | Compound NOT metabolized | Compound NOT metabolized | Compound metabolized | Compound NOT metabolized | Compound NOT metabolized | Compound NOT metabolized | Compound metabolized
CN/C(=N/CCSCc1nc[nH]c1C)NC#N [CIMETIDINE] | Compound NOT metabolized | Compound NOT metabolized | Compound NOT metabolized |  | Compound metabolized | Compound NOT metabolized | Compound NOT metabolized | Compound NOT metabolized | Compound NOT metabolized | Compound NOT metabolized | Compound NOT metabolized | Compound NOT metabolized |  | Compound NOT metabolized |  | Compound NOT metabolized | Compound NOT metabolized |  | Compound metabolized
COC(=O)[C@H](c1ccccc1Cl)N1CCc2sccc2C1.O=S(=O)(O)O [CLOPIDOGREL BISULFATE] | Compound metabolized | Compound NOT metabolized | Compound NOT metabolized | Compound metabolized | Compound metabolized | Compound NOT metabolized | Compound NOT metabolized | Compound NOT metabolized | Compound NOT metabolized | Compound NOT metabolized | Compound NOT metabolized | Compound NOT metabolized | Compound metabolized | Compound NOT metabolized | Compound metabolized | Compound NOT metabolized | Compound NOT metabolized | Compound metabolized | Compound metabolized
CN1CCC(=C2c3ccccc3CCc3cccnc32)CC1.O=C(O)/C=C\C(=O)O.O=C(O)/C=C\C(=O)O [AZATADINE MALEATE] |  | Compound NOT metabolized | Compound NOT metabolized |  |  | Compound NOT metabolized | Compound NOT metabolized | Compound NOT metabolized | Compound NOT metabolized | Compound NOT metabolized | Compound NOT metabolized | Compound NOT metabolized | Compound NOT metabolized | Compound NOT metabolized |  | Compound NOT metabolized | Compound NOT metabolized | Compound NOT metabolized | Compound NOT metabolized
CCOC(=O)[C@H](CCc1ccccc1)N[C@H]1CCc2ccccc2N(CC(=O)O)C1=O [BENAZEPRIL] | Compound metabolized | Compound NOT metabolized | Compound NOT metabolized | Compound metabolized | Compound metabolized | Compound metabolized | Compound NOT metabolized |  | Compound NOT metabolized | Compound metabolized | Compound NOT metabolized | Compound NOT metabolized | Compound metabolized | Compound NOT metabolized | Compound metabolized | Compound NOT metabolized | Compound NOT metabolized | Compound metabolized | Compound metabolized
Cc1nc2n(c(=O)c1CCN1CCC(c3noc4cc(F)ccc34)CC1)CCCC2 [RISPERIDONE] | Compound NOT metabolized | Compound metabolized | Compound NOT metabolized | Compound NOT metabolized | Compound NOT metabolized | Compound NOT metabolized | Compound metabolized | Compound NOT metabolized | Compound NOT metabolized | Compound metabolized |  | Compound metabolized | Compound NOT metabolized | Compound metabolized |  | Compound metabolized |  | Compound NOT metabolized | Compound NOT metabolized
NS(=O)(=O)c1cc2c(cc1Cl)N=C(CSCc1ccccc1)NS2(=O)=O [BENZTHIAZIDE] |  | Compound NOT metabolized | Compound NOT metabolized |  | Compound NOT metabolized | Compound NOT metabolized | Compound NOT metabolized | Compound NOT metabolized | Compound NOT metabolized | Compound NOT metabolized | Compound NOT metabolized | Compound NOT metabolized | Compound NOT metabolized | Compound NOT metabolized | Compound NOT metabolized |  | Compound NOT metabolized | Compound NOT metabolized | Compound NOT metabolized
